Key:
[1] = target: T1, human phosphatase VHR, wild type, SEQ ID NO:2 (Homo sapiens, UniProt P51452); assay type: biochemical
T1 construct: fragment containing the entire VHR coding region; glutathione-S-transferase (GST), pGEX-KT (N, cleaved yes); made in house
Experimental: (§1) Production and purification of bacterially-expressed VHR. A 0.8 kB SalI-HinDIII fragment containing the entire VHR coding region was blunt-ended with DNA polymerase (Klenow fragment), and BamHI linkers were added. DNA was digested with BamHI, and inserted in-frame into the BamHI site of the pGEX-KT expression vector, described in Hakes et al., Anal. Biochem. 202:293-298 (1992), to produce pGEX-VHR. Plasmid pGEX-VHR was used to express VHR as a fusion protein with glutathione-S-transferase (GST). Expression and purification of GST-VHR was performed as described for a rat brain PTP. Guan et al. (Anal. Biochem. 1991). […] VHR protein, obtained by thrombin cleavage of the purified GST fusion protein, was used for phosphatase assays.
(§2) Phosphatase assays with purified VHR. Dephosphorylation of p-nitrophenylphosphate (pNPP) was performed as described previously. Tonks et al., J. Biol. Chem. 263:6731-6737 (1988).
(§3) Fischer et al. (1991); Hunter et al. (1989).

[2] = target: human phosphatase VHR as GST-VHR fusion protein (glutathione-S-transferase fusion, VHR SEQ ID NO:2) (Homo sapiens, UniProt P51452); settings: hydrolysis of pNPP, absorbance at 410 nm
Experimental: as §1, §2, §3

[3] = target: highly purified PDGF receptor (baculovirus-expressed)
[4] = target: human phosphatase VHR (clone 27 lysate, pCEV27) (Homo sapiens, UniProt P51452); settings: 3 mM sodium vanadate, 37 C, 30 minutes
Sequence of human phosphatase VHR (clone 27 lysate, pCEV27) (P51452 whole entry): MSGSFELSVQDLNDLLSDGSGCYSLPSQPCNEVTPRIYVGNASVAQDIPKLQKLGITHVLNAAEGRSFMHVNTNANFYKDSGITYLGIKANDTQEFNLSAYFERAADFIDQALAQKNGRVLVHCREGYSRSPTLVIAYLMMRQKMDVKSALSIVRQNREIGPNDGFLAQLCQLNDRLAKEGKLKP
Experimental: Phosphatase assays with bacterial extracts. […] Cultures of E. coli strain Y1091 (50 ml), carrying either pCEV-bek, pCEV-lacZ (pCEV-lacZ vector without an insert), or pCEV27 were grown and induced with 1 mM IPTG as described. […] Cells were collected by centrifugation and lysed in 1 ml of buffer containing 50 mM HEPES, pH 7.4, 1% Triton X-100, and 1 mM phenylmethylsulfonyl fluoride. Lysates were sonicated twice for ten seconds each, clarified by centrifugation, and the supernatants were tested for phosphatase activity.
The reaction was stopped by boiling in sodium dodecyl sulfate polyacrylamide gel electrophoresis (SDS-PAGE) sample buffer, described by Laemmli, Nature 227:680-685 (1970), for three minutes. The Sample was divided into two equal aliquots, resolved by 6.5% SDS-PAGE, and transferred to Immobilon (Milipore).
Immunoblotting was performed with monoclonal anti-pTyr (Upstate Biotechnology, Inc.) or monoclonal anti-β-gal antibodies (Promega) as described previously.

T1 sequence (P51452 whole entry, the tested form may be a part): as the sequence (P51452 whole entry) above
Sequence of human phosphatase VHR as GST-VHR fusion protein (glutathione-S-transferase fusion, VHR SEQ ID NO:2) (P51452 whole entry, the tested form may be a part): as the sequence (P51452 whole entry) above

C=C1[C@@H](O)[C@@H]2O[C@]3(CC[C@H](/C=C/[C@@H](C)[C@@H]4CC(C)=C[C@@]5(O[C@H](C[C@@](C)(O)C(=O)O)CC[C@H]5O)O4)O3)CC[C@H]2O[C@@H]1[C@@H](O)C[C@H](C)[C@H]1O[C@@]2(CCCCO2)CC[C@H]1C [Okadaic acid]
inhibitory effect on the enzyme activity (pNPP hydrolysis) [1]: no inhibitory effect

O=[N+]([O-])c1ccc(OP(=O)(O)O)cc1 [pNPP, p-nitrophenylphosphate]
Km (pNPP) after cleavage of the VHR from GST with thrombin ([1]; compared with GST-VHR fusion, data not shown): unchanged
Km (pNPP) [2]: in the micromolar range

[F-].[Na+] [sodium fluoride]
inhibitory effect on the enzyme activity (pNPP hydrolysis) [1]: no inhibitory effect

VHR (enzyme)
Km of dephosphorylation (anti-pTyr/[125I]-protein A immunoblot, PhosphorImager) [3]: < 100 mM

sodium vanadate
inhibition of the reduction of pTyr content of beta-gal-bek by clone 27 lysate [4]: inhibited
inhibition of pNPP hydrolysis by the phosphatase [1]: completely inhibited

From patent US5512434A (priority 1992, dated 1996)
